Results as given in patent EP2198709A1, “Method for treating resistant animal pests” (Bayer CropScience AG, priority 2008, dated 2010).

Columns and labels:
Assay type in all cases: in vivo
[1] = tested on: Nymphen von Bemisia tabaci; assay: Field trial on aubergine plants, drench, against nymphs of neonicotinoid-resistant whiteflies (Almeria); details: drenched 3x, 150 g ai/ha/m CH, I-5 SL 300, Imidacloprid SL 200
From the text: In Almeria (Südspanien) wurden Auberginenpflanzen, die stark mit Nymphen von bekanntermaßen Neonikotinoyl-resistenten weißen Fliegen (Bemisia tabaci) infiziert waren, jeweils drei Mal im Abstand von 9 und 12 Tagen mit der Verbindung I-5 (SL 300, 150 g ai/ha/m CH (g aktive Substanz/ha/m CH, CH = Laubwand-Höhe) bzw. mit Imidacloprid (SL 200, 150 g ai/ha/m CH) gegossen. Zu verschiedenen Zeitpunkten nach der dritten Behandlung (DAC = Tage nach 3. Behandlung) wurde die Wirksamkeit (in % Abbott: Verhältnis der Anzahl Nymphen auf behandelter Pflanze / Fläche zur Anzahl Nymphen auf Kontrolle) der beiden Substanzen gegen Nymphen von Bemisia tabaci in bestimmt.

[2] = tested on: Eier von Bemisia argentifolii; assay: Field trial on melon plants, spray, against eggs of neonicotinoid-resistant silverleaf whiteflies (Arizona); details: 150 g ai/ha/m CH, I-5 SL 100, Imidacloprid SC 192
From the text: (§1) In Arizona (USA) wurden Melonenpflanzen, die stark mit Eiern von bekanntermaßen Neonikotinoyl-resistenten Silberflügeligen Weißen Fliegen (Bemisia argentifolii) infiziert waren, jeweils zwei Mal im Abstand von 15 Tagen mit der Verbindung I-5 (SL 100, 150 g ai/ha/m CH (g aktive Substanz/ha/m CH, CH = Laubwand-Höhe) bzw. mit Imidacloprid (SC 192, 150 g ai/ha/m CH) besprüht. Zu verschiedenen Zeitpunkten nach der ersten bzw. zweiten Behandlung (DAA = Tage nach 1. Behandlung, DAB = Tage nach zweiter Behandlung) wurde die Wirksamkeit (in % Abbott: Verhältnis der Anzahl Eier auf behandelter Pflanze / Fläche zur Anzahl Eier auf Kontrolle) der beiden Substanzen gegen Eier von Bemisia argentifolii bestimmt.

[3] = tested on: Nilaparvata lugens Bayer S; assay: Spray test on infested rice seedlings (standard screening), susceptible strain Bayer S; details: rice seedlings sprayed, evaluation 7 days after infection
From the text: (§2) Reissetzlinge wurden mit Stämmen von Nilaparvata lugens (Bayer S und Vietnam) infiziert und mit der Verbindung I-5 bzw. mit Imidacloprid besprüht. Die Auswertung erfolgte 7 Tage nach Infektion (Standard-Screening-Verfahren).

[4] = tested on: Nymphen von Bemisia argentifolii; assay: Field trial on melon plants, spray, against nymphs of neonicotinoid-resistant silverleaf whiteflies (Arizona); details: 150 g ai/ha/m CH, SL 100, Imidacloprid SC 192
From the text: as §1, with “Nymphen” for “Eiern”, “1-5” for “I-5”, “Nymphen” for “Eier”

Bemisia tabaci SUD-S = assay: Leaf-dip bioassay, adult whiteflies, insecticide-susceptible strain SUD-S; details: adults, mortality after 72 h
From the text: (§3) Es wurden Versuche durchgeführt, um die überlegene Blattwirkung von Enaminocarbonylverbindungen gegen adulte Tiere eines Stamms von Bemisia tabaci zu zeigen, der bekanntermaßen resistent ist gegen Neonikotinoid-Insektizide sowie andere Insektizidklassen, einschließlich Insekten-Wachstumsregulatoren (wie Buprofezin) und Antifeedants (Substanzen, die einen Schaderreger vom Fraß abhalten) (wie Pymetrozin).
(§4) Baumwollblattscheiben (30 mm im Durchmesser) wurden für 5 sec in wässrige Lösungen technischer Insektizide, enthaltend 0,2 g/l Triton-X-100 als nicht-ionisches Benetzungsmittel, getaucht. Luftgetrocknete Blattscheiben wurden dann mit der adaxialen Seite nach unten auf ein Agarbett (12 g/l) in einer kleinen Petrischale (40 mm im Durchmesser) gelegt. Adulte Weiße Fliegen wurden mittels eines Vakuum-getriebenen Aspirators aus Aufzuchtkäfigen eingesammelt und 20 adulte Tiere wurden nach kurzer CO2-Narkose auf die Blattscheiben gelegt. Anschließend wurde jede Petrischale mit einem belüfteten Deckel verschlossen und umgedreht aufbewahrt. Nach 72 h wurde die Mortalität der Weißen Fliegen bestimmt. Jedes Insektizid wurde mindestens dreifach mit 2-oder 3-fach Bestimmungen pro Konzentration getestet.
(§5) LC50-Werte wurden aus Probit-Regressionen unter Verwendung des Computerprogramms POLO-PC 2 (LeOra Software, Berkeley, USA) berechnet.
(§6) Tabelle 1. Log-Dosis Probit Mortalitätsdaten für verschiedene Klassen von Insektiziden erhalten aus Blatt-Tauch-Bioassays gegen adulte Tiere zweier Bemisia tabaci Stämme, SUD-S und ESP-00, die bekanntermaßen Insektizid-empfindlich (SUD-S) bzw. multiresistent (ESP-00) sind (Stumpf und Nauen, 2003). Mortalität wurde nach 72 h bestimmt, mit Ausnahme von Buprofezin (10-12 d).

[5] = tested on: Nilaparvata lugens Vietnam; assay: Spray test on infested rice seedlings (standard screening), resistant strain Vietnam; details: rice seedlings sprayed, evaluation 7 days after infection
From the text: as §2

Bemisia tabaci ESP-00 = assay: Leaf-dip bioassay, adult whiteflies, multi-resistant strain ESP-00; details: adults; for ESP-00 LC50: multi-resistant strain ESP-00, mortality after 72 h
From the text: as §3, §4, §5, §6

[6] = tested on: Trialeurodes vaporariorum; assay: Trial on poinsettia, spray, against neonicotinoid-resistant greenhouse whiteflies (Netherlands); details: 150 g ai/ha/m CH, SL 100, Imidacloprid SL 200
From the text: In Zwaagdiyk (Niederlande) wurden Weihnachtssterne, die stark mit bekanntermaßen Neonikotinoyl-resistenten Gewächshaus-Weißen Fliegen (Trialeurodes vaporariorum) infiziert waren, jeweils zwei Mal im Abstand von 7 Tagen mit der Verbindung 1-5 (SL 100, 150 g ai/ha/m CH (g aktive Substanz/ha/m CH, CH = Laubwand-Höhe) bzw. mit Imidacloprid (SL 200, 150 g ai/ha/m CH) besprüht. Zu verschiedenen Zeitpunkten nach der ersten bzw. zweiten Behandlung (DAA = Tage nach 1. Behandlung, DAB = Tage nach zweiter Behandlung) wurde die Wirksamkeit (in % Abbott: Verhältnis der Anzahl Tiere auf behandelter Pflanze / Fläche zur Anzahl Tiere auf Kontrolle) der beiden Substanzen gegen Trialeurodes vaporariorum bestimmt.

[7] = 7 DAB (days after 2nd treatment), sprayed 2x
[8] = 8 DAA (days after 1st treatment), sprayed

Row | SMILES | Effizienz ([1]; 7 DAC) | Effizienz ([1]; 14 DAC) | Effizienz ([1]; 21 DAC) | Effizienz [2, 7] | Effizienz [2, 8] | Effizienz ([2]; 13 DAB, sprayed 2x) | Effizienz ([2]; 14 DAA, sprayed) | Bayer S (empfindlicher Stamm) LC50 [3] | Effizienz ([4]; 7 DAB, sprayed 2x) | Effizienz ([4]; 8 DAA, sprayed) | Effizienz ([4]; 13 DAB, sprayed 2x) | Effizienz ([4]; 14 DAA, sprayed) | SUD-S LC50 (Bemisia tabaci SUD-S) | Vietnam (resistenter Stamm) LC50 [5] | ESP-00 LC50 (Bemisia tabaci ESP-00) | Effizienz ([6]; 7 DAA, sprayed) | Effizienz ([6]; 7 DAB, sprayed 2x) | Effizienz ([6]; 14 DAB, sprayed 2x) | Effizienz ([6]; 21 DAB, sprayed 2x) | Effizienz ([6]; 29 DAB, sprayed 2x) | further results
1 | O=[N+]([O-])NC1=NCCN1Cc1ccc(Cl)nc1 [Imidacloprid] | 41 % Abbott | 50,7 % Abbott | 21 % Abbott | 30,2 % Abbott | 66,1 % Abbott | 0 % Abbott | 69,5 % Abbott | 0,0049 g/ha | 36,1 % Abbott | 53,1 % Abbott | 31,9 % Abbott | 47,6 % Abbott | 0.82 ppm | 13 g/ha | 300 ppm | 11,4 % Abbott | 9,9 % Abbott | 0 % Abbott | 3,7 % Abbott | 18,6 % Abbott | –
2 | O=C1C=C(N(Cc2ccc(Cl)nc2)CC(F)F)CO1 [Verbindung I-5, 4-{[(6-Chlorpyrid-3-yl)methyl](2,2-difluorethyl)amino}furan-2(5H)-on] | 79,1 % Abbott | 63,7 % Abbott | 66,8 % Abbott | 81,6 % Abbott | 97,6 % Abbott | 69 % Abbott | 72,9 % Abbott | 0,36 g/ha | 55,4 % Abbott | 86,8 % Abbott | 80,9 % Abbott | 84,6 % Abbott | 6.7 ppm | 3,2 g/ha | 36 ppm | 23 % Abbott | 50,9 % Abbott | 39,1 % Abbott | 62,2 % Abbott | 50,9 % Abbott | Resistenz / Kreuz-resistenz von adulten B. tabaci Tieren des Stamms ESP-00 im Vergleich zu SUD-S (Bemisia tabaci ESP-00; leaf-dip, result in words): nur geringfügige Kreuz-resistenz
